Data published in patent US11401253B2, “16-methyl-oxacyclohexadecan-2-one and 16-methyl-azacyclohexadecan-2-one derivatives as antimicrobial agents” (THE UNIVERSITY OF MONTANA, priority 2017, dated 2022).
Converted amounts (≈) assume the structure as drawn. “And” between values parts separate entries of the source, which are not always exact repeats. Identical values can stand only once. Like-named read-outs stand apart in the source and are kept apart here.

Assays:
[1] = tested on: non-replicating persistence Mycobacterium tuberculosis (NRP-TB); assay: Low oxygen recovery assay (LORA), non-replicating persistence Mtb; assay type: cell-based; details: Mycobacterium tuberculosis, read-out: MIC, LORA
[2] = tested on: Mycobacterium tuberculosis; assay: microbe, parasite or virus in culture; details: read-out: MIC, MABA
Candida glabrata = assay: Antibiotic testing (MIC), Candida glabrata; assay type: cell-based; details: Nakaseomyces glabratus; growth inhibition ≥90%; read-out: minimum inhibitory concentration, Candida glabrata
Streptococcus pyogenes = assay: Antibiotic testing (MIC), Streptococcus pyogenes; assay type: cell-based; details: growth inhibition ≥90%, read-out: minimum inhibitory concentration, Streptococcus pyogenes
[3] = tested on: Staphylococcus aureus (13709); assay: Antibiotic testing (MIC), S. aureus 13709; assay type: cell-based; details: growth inhibition ≥90% relative to drug-free controls, read-out: minimum inhibitory concentration, Staphylococcus aureus (13709)
C. albicans = assay: Antibiotic testing (MIC), C. albicans; assay type: cell-based; details: Candida albicans; growth inhibition ≥90%; read-out: minimum inhibitory concentration, C. albicans
B. anthracis = assay: microbe, parasite or virus in culture; assay type: cell-based; details: Bacillus anthracis, read-out: minimum inhibitory concentration, B. anthracis
HepG2 = assay: Cytotoxicity (MTS), HepG2 cells; assay type: cell-based; details: Homo sapiens, 72 hours exposure
Vero cell = assay: Cytotoxicity (MTS), Vero cells; assay type: cell-based, monkey; details: Primates, 72 hours exposure
Bacillus subtilis = assay: Antibiotic testing (MIC), Bacillus subtilis; assay type: cell-based; details: growth inhibition ≥90%, read-out: minimum inhibitory concentration, Bacillus subtilis
J774 = assay: Cytotoxicity (MTS), J774 cells; assay type: cell-based, murine; details: Mus musculus, 72 hours exposure
P. aeruginosa = assay: Antibiotic testing (MIC), gram negative P. aeruginosa; assay type: cell-based; details: Pseudomonas aeruginosa; read-out: MIC, P. aeruginosa
Protocol: (§1) None of this collection of compounds were active against Gram-negative bacteria
(§2) Additionally, BPL 76 and derivatives were tested against a panel of gram negative bacteria including K. pneumonia, P. aeruginosa and E. coli (Table 12).

MMP-3 = target: T1, MMP-3 (Homo sapiens, UniProt P08254); assay: MMP-3 enzyme inhibition assay; assay type: biochemical
T1 construct: purchased BioMol
Protocol: The two fungi were also co-cultured under controlled conditions. P. fuscum was grown in pure culture in potato dextrose broth (10×400 mL). After 24 h, an agar cube (8 mm^3) impregnated with P. camembertii/clavigerum mycelium was added to each flask and the resulting co-culture was shaken for 6 more days (200 rpm, room temperature). At time of harvest, methanol (50 mL/flask) was added, the mycelia were removed by gravity filtration and the broth was extracted with chloroform (3×2 L). The chloroform was removed in vacuo to yield 663 mg of crude extract. The crude extract was verified to be active in the MMP-3, caspase-1 and caspase-3 enzyme inhibition assays. Enzyme inhibitory activity was determined using specific BioMol enzyme inhibition assay kits for drug discovery as described in Stierle, A; Stierle, D. The Berkeleylactones, Antibiotic Macrolides from Fungal Coculture. J. Nat. Prod. 80, 4, 1150-1160.

E. coli (25922) = assay: Antibiotic testing (MIC), gram negative E. coli; assay type: cell-based; details: for MIC: Escherichia coli, read-out: MIC, E. coli (25922)
Protocol: as §1, §2

K. pneumoniae (10031) = assay: Antibiotic testing (MIC), gram negative K. pneumoniae; assay type: cell-based; details: for MIC: Klebsiella pneumoniae, read-out: MIC, K. pneumoniae (10031)
Protocol: as §1, §2

S. aureus CAIRD148 = assay: Antibiotic testing, methicillin-resistant S. aureus CAIRD148; assay type: cell-based; details: methicillin-resistant strain; for MIC: Staphylococcus aureus, CAIRD148
Text: (§3) Both the methyl ester and the diacetate derivatives of BPL 76 slightly less but still very strong activity against the same four MRSA strains (Table 11). The activities of compounds BPL 76 and BPL 81 were compared to several known antibiotics against three methicillin-resistant strains of S. aureus [FIG. 6, comparative data provided by Hartford Hospital, Center for Anti-Infective Research and Development (CAIRD)].

S. aureus CAIRD142 = assay: Antibiotic testing, methicillin-resistant S. aureus CAIRD142; assay type: cell-based; details: methicillin-resistant strain; for MIC: Staphylococcus aureus, CAIRD142
Text: as §3

S. aureus CAIRD116 = assay: Antibiotic testing, methicillin-resistant S. aureus CAIRD116; assay type: cell-based; details: methicillin-resistant strain; for MIC: Staphylococcus aureus, CAIRD116
Text: as §3

S. aureus (NE277) = assay: Antibiotic testing, methicillin-resistant S. aureus NE277; assay type: cell-based; details: for MIC: Staphylococcus aureus, read-out: antibiotic testing data (MIC), S. aureus (NE277); for antibiotic testing data (MIC), S. aureus (NE277): methicillin-resistant strain
Text: as §3

[4] = non-replicating persistence, hypoxic conditions
[5] = non-replicating persistence conditions, known antibiotics

T1 sequence (P08254 100-477): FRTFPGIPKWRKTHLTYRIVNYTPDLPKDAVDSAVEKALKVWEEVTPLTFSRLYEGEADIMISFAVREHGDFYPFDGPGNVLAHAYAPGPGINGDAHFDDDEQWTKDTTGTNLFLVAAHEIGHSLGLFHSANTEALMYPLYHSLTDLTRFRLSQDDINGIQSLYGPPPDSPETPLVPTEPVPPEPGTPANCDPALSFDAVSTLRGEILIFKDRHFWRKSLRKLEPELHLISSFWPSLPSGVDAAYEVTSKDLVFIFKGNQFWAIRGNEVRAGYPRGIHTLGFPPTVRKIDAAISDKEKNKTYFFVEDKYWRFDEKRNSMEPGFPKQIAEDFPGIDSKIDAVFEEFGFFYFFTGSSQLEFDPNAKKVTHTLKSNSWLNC

| SMILES | MIC [2] | MIC (Candida glabrata) | MIC (Streptococcus pyogenes) | MIC [3] | MIC (C. albicans) | MIC (B. anthracis) | IC50 (HepG2) | IC50 (Vero cell) | MIC (Bacillus subtilis) | IC50 (J774) | MIC (P. aeruginosa) | MIC (E. coli (25922)) | MIC (K. pneumoniae (10031)) | further results |
| --- | --- | --- | --- | --- | --- | --- | --- | --- | --- | --- | --- | --- | --- | --- |
| C[C@@H]1CCCCCCCCC[C@H](O)[C@H](O)/C=C/C(=O)O1 [BPL 95, (5R,6S,16R,E)-5,6-dihydroxy-16-methyloxacyclohexadec-3-en-2-one] | > 100 µg/mL | > 96 µg/mL | > 96 µg/mL | 48 µg/mL (≈ 169 µM) | > 96 µg/mL | > 96 µg/mL | > 100 µg/mL | 75.6 µg/mL (≈ 266 µM) | 48 µg/mL (≈ 169 µM) | 74.1 µg/mL (≈ 261 µM) |  |  |  | MIC [1, 4]: 24 µg/mL |
| NNC(=O)c1ccncc1 [INH - Isoniazid, Isoniazid, reference compound] | 0.5 µM |  |  |  |  |  |  |  |  |  |  |  |  | MIC [1, 5]: > 128 µM |
| C[C@@H]1CC(O)CCCCCCC[C@H](OC(=O)CCC(=O)O)C(=O)/C=C/C(=O)O1 (stereo partly drawn) [BPL 78, 4-(((6S,16R,E)-14-hydroxy-16-methyl-2,5-dioxooxacyclohexadec-3-en-6-yl)oxy)-4-oxobutanoic acid] |  |  |  |  |  |  |  |  |  |  | > 1000 µM | > 1000 µM | > 1000 µM | MMP-3 inhibition (MMP-3): weaker inhibitors |
| C[C@@H]1CCCCCCCCC[C@H](OC(=O)CCC(=O)O)C(=O)/C=C/C(=O)O1 [BPL 81, 4-(((6S,16R,E)-16-methyl-2,5-dioxooxacyclohexadec-3-en-6-yl)oxy)-4-oxobutanoic acid] | 47 µg/mL | 48 µg/mL (≈ 126 µM) | 48 µg/mL (≈ 126 µM) | 3 µg/mL (≈ 7.84 µM) | 96 µg/mL (≈ 251 µM) | 6 µg/mL (≈ 15.7 µM) | > 100 µg/mL | 55.7 µg/mL (≈ 146 µM) | 12 µg/mL (≈ 31.4 µM) | 37.2 µg/mL (≈ 97.3 µM) | > 250 µM | > 250 µM | > 250 µM | MIC (S. aureus CAIRD148): 6 µg/mL (≈ 15.7 µM); antibiotic testing data (MIC), S. aureus CAIRD148 (S. aureus CAIRD148): 16 µM; MIC [1, 4]: > 100 µg/mL; MIC (S. aureus CAIRD142): 6 µg/mL (≈ 15.7 µM); antibiotic testing data (MIC), S. aureus CAIRD142 (S. aureus CAIRD142): 16 µM; MIC (S. aureus CAIRD116): 6 µg/mL (≈ 15.7 µM); antibiotic testing data (MIC), S. aureus CAIRD116 (S. aureus CAIRD116): 16 µM; MIC (S. aureus (NE277)): 6 µg/mL (≈ 15.7 µM); antibiotic testing data (MIC), S. aureus (NE277) (S. aureus (NE277)): 16 µM |
| O=[N+]([O-])c1cn2c(n1)OC[C@@H](OCc1ccc(OC(F)(F)F)cc1)C2 [PA824, reference compound] | 0.2 µM |  |  |  |  |  |  |  |  |  |  |  |  | MIC [1, 5]: 7 µM |
| O=C(O)CCC(=O)O[C@H]1CCCCCCCCC[C@@H](CO)OC(=O)/C=C/[C@H]1O [BPL 98, 4-(((5R,6S,16S,E)-5-hydroxy-16-(hydroxymethyl)-2-oxooxacyclohexadec-3-en-6-yl)oxy)-4-oxobutanoic acid] |  | > 100 µg/mL | > 100 µg/mL | > 100 µg/mL | > 100 µg/mL | > 100 µg/mL |  |  | > 100 µg/mL |  |  |  |  | MIC (S. aureus CAIRD148): > 100 µg/mL; antibiotic testing data (MIC), S. aureus CAIRD148 (S. aureus CAIRD148): >250 µM; MIC (S. aureus CAIRD142): > 100 µg/mL; antibiotic testing data (MIC), S. aureus CAIRD142 (S. aureus CAIRD142): >250 µM; MIC (S. aureus CAIRD116): > 100 µg/mL; antibiotic testing data (MIC), S. aureus CAIRD116 (S. aureus CAIRD116): >250 µM; MMP-3 inhibition (MMP-3): weaker inhibitors; MIC (S. aureus (NE277)): > 100 µg/mL; antibiotic testing data (MIC), S. aureus (NE277) (S. aureus (NE277)): >250 µM |
| C[C@@H]1CCCCCCCCCC[C@H](O)/C=C/C(=O)O1 [BPL 94, (5S,16R,E)-5-hydroxy-16-methyloxacyclohexadec-3-en-2-one] | 39 µg/mL | > 67 µg/mL | 67 µg/mL (≈ 250 µM) | 34 µg/mL (≈ 127 µM) | > 67 µg/mL | 34 µg/mL (≈ 127 µM) | 85.2 µg/mL (≈ 317 µM) | 43.8 µg/mL (≈ 163 µM) | 34 µg/mL (≈ 127 µM) | 40.7 µg/mL (≈ 152 µM) |  |  |  | MIC [1, 4]: 20 µg/mL |
| CO[C@H]1/C=C/O[C@@]2(C)Oc3c(C)c(O)c4c(O)c(c(/C=N/N5CCN(C)CC5)c(O)c4c3C2=O)NC(=O)/C(C)=C\C=C\[C@H](C)[C@H](O)[C@@H](C)[C@@H](O)[C@@H](C)[C@H](OC(C)=O)[C@@H]1C [RMP - Rifampicin, Rifampicin, reference compound] | > 0.1 µM |  |  |  |  |  | > 100 µg/mL | > 100 µg/mL |  | 95.8 µg/mL (≈ 116 µM) |  |  |  | MIC [1]: 0.4 µM |
| CC(=O)NC[C@H]1CN(c2ccc(N3CCOCC3)c(F)c2)C(=O)O1 [LIZ - Linezolidum, Linezolidum, reference compound] | 2 µM |  |  |  |  |  |  |  |  |  |  |  |  | MIC [1, 5]: 2 µM |
| COc1nc2ccc(Br)cc2cc1[C@@H](c1ccccc1)[C@@](O)(CCN(C)C)c1cccc2ccccc12 [TMC207, reference compound] | > 0.1 µM |  |  |  |  |  | > 10 µg/mL | > 10 µg/mL |  | > 10 µg/mL |  |  |  | MIC [1]: 0.1 µM |
| C[C@H]1OC(=O)/C=C/[C@@H](O)[C@@H](O)CCCCCCCC[C@@H]1O [BPL 79, (5R,6S,15 S,16R,E)-5,6,15-trihydroxy-16-methyloxacyclohexadec-3-en-2-one] |  | > 300 µg/mL | 150 µg/mL (≈ 499 µM) | 19 µg/mL (≈ 63.3 µM) | > 300 µg/mL | 75 µg/mL (≈ 250 µM) |  |  | > 300 µg/mL |  | > 1000 µM | > 1000 µM | > 1000 µM |  |
| C[C@H]1OC(=O)/C=C/C(=O)[C@@H](OC(=O)CCC(=O)O)CCCCCCCC[C@@H]1O [BPL 77, 4-(((6S,15S,16R,E)-15-hydroxy-16-methyl-2,5-dioxooxacyclohexadec-3-en-6-yl)oxy)-4-oxobutanoic acid] |  |  |  |  |  |  |  |  |  |  | > 1000 µM | 500 µM and 199 µg/mL | 1000 µM and 398 µg/mL | activity against E. coli (in words) (E. coli (25922)): weakly active; activity against K. pneumonia (in words) (K. pneumoniae (10031)): weakly active |
| C[C@@H]1CCCCCCCCC[C@H](O)[C@H](OC(=O)CCC(=O)O)/C=C/C(=O)O1 [BPL 96, 4-(((5R,6S,16R,E)-6-hydroxy-16-methyl-2-oxooxacyclohexadec-3-en-5-yl)oxy)-4-oxobutanoic acid] |  | > 96 µg/mL | > 96 µg/mL | 48 µg/mL (≈ 125 µM) | > 96 µg/mL | > 96 µg/mL |  |  | 48 µg/mL (≈ 125 µM) |  |  |  |  |  |
| Cc1ncc([N+](=O)[O-])n1CCO [MET - Metronidazole, Metronidazole, reference compound] |  |  |  |  |  |  |  |  |  |  |  |  |  | MIC [1, 5]: 449 µM |
| CC(=O)O[C@H]1CCCCCCCC[C@H](OC(C)=O)[C@H](OC(C)=O)/C=C/C(=O)O[C@@H]1C [BPL 79 Ac, (2R,3S,12S,13R,E)-2-methyl-16-oxooxacyclohexadec-14-ene-3,12,13-triyl triacetate] |  |  |  |  |  |  |  |  |  |  | > 500 µM | > 500 µM | > 500 µM |  |
